Test results taken from ChEMBL document CHEMBL1130778, “The synthesis and evaluation of cyclic ureas as HIV protease inhibitors: modifications of the P1/P1' residues” (Bioorg Med Chem Lett, 1998).

Tests used:
[1] = target: Human immunodeficiency virus type 1 protease (Human immunodeficiency virus 1, UniProt Q72874); assay: HIV protease inhibition.
[2] = test system: Human immunodeficiency virus 1; assay: Whole cell antiviral activity.; assay type: functional

Row | SMILES | Ki [1] [nM] | IC90 [2] [nM]
1 | O=C1N(Cc2ccccc2)[C@H](Cc2ccc(OCCO)cc2)[C@H](O)[C@@H](O)[C@@H](Cc2ccc(OCCO)cc2)N1Cc1ccccc1 | 0.76 | 78
2 | O=C1N(Cc2cccc(-c3cc[nH]n3)c2)[C@H](Cc2ccc(OCCO)cc2)[C@H](O)[C@@H](O)[C@@H](Cc2ccc(OCCO)cc2)N1Cc1cccc(-c2cc[nH]n2)c1 | 0.059 | 462
3 | O=C1N(Cc2cccc(-c3cc[nH]n3)c2)[C@H](Cc2ccccc2)[C@H](O)[C@@H](O)[C@@H](Cc2ccccc2)N1Cc1cccc(-c2cc[nH]n2)c1 |  | 56
4 | O=C1N(Cc2cccc(-c3cc[nH]n3)c2)[C@H](Cc2ccc(OCc3ccncc3)cc2)[C@H](O)[C@@H](O)[C@@H](Cc2ccc(OCc3ccncc3)cc2)N1Cc1cccc(-c2cc[nH]n2)c1 | 0.071 | 18
5 | O=C1N(Cc2ccccc2)[C@H](Cc2ccc(O)cc2)[C@H](O)[C@@H](O)[C@@H](Cc2ccc(O)cc2)N1Cc1ccccc1 |  | 184
6 | O=C1N(Cc2ccccc2)[C@H](Cc2ccc(OCc3ccncc3)cc2)[C@H](O)[C@@H](O)[C@@H](Cc2ccc(OCc3ccncc3)cc2)N1Cc1ccccc1 | 0.84 | 100
7 | CN(C)CCOc1ccc(C[C@@H]2[C@H](O)[C@@H](O)[C@@H](Cc3ccc(OCCN(C)C)cc3)N(Cc3cccc(-c4cc[nH]n4)c3)C(=O)N2Cc2cccc(-c3cc[nH]n3)c2)cc1 | 0.061 | 5400
8 | O=C1N(Cc2ccccc2)[C@H](Cc2ccccc2)[C@H](O)[C@@H](O)[C@@H](Cc2ccccc2)N1Cc1ccccc1 |  | 790
9 | O=C1N(Cc2cccc(-c3cc[nH]n3)c2)[C@H](Cc2ccc(OCc3cccnc3)cc2)[C@H](O)[C@@H](O)[C@@H](Cc2ccc(OCc3cccnc3)cc2)N1Cc1cccc(-c2cc[nH]n2)c1 | 0.059 | 32
10 | O=C1N(Cc2ccccc2)[C@H](Cc2ccc(OCCN3CCOCC3)cc2)[C@H](O)[C@@H](O)[C@@H](Cc2ccc(OCCN3CCOCC3)cc2)N1Cc1ccccc1 | 5.9 | 230
11 | COc1ccc(C[C@@H]2[C@H](O)[C@@H](O)[C@@H](Cc3ccc(OC)cc3)N(Cc3cccc(-c4cc[nH]n4)c3)C(=O)N2Cc2cccc(-c3cc[nH]n3)c2)cc1 | 0.078 | 10
12 | O=C1N(Cc2cccc(-c3cc[nH]n3)c2)[C@H](Cc2ccc(O)cc2)[C@H](O)[C@@H](O)[C@@H](Cc2ccc(O)cc2)N1Cc1cccc(-c2cc[nH]n2)c1 | 0.016 | 1340
13 | Nc1cccc(CN2C(=O)N(Cc3cccc(N)c3)[C@H](Cc3ccccc3)[C@H](O)[C@@H](O)[C@H]2Cc2ccccc2)c1 [MOZENAVIR] |  | 126
14 | O=C1N(Cc2ccc(CO)cc2)[C@H](Cc2ccccc2)[C@H](O)[C@@H](O)[C@@H](Cc2ccccc2)N1Cc1ccc(CO)cc1 [DMP-323] | 0.29 | 91
15 | CNCCOc1ccc(C[C@@H]2[C@H](O)[C@@H](O)[C@@H](Cc3ccc(OCCNC)cc3)N(Cc3ccccc3)C(=O)N2Cc2ccccc2)cc1 | 1.6 | 800
16 | COc1ccc(C[C@@H]2[C@H](O)[C@@H](O)[C@@H](Cc3ccc(OC)cc3)N(Cc3ccccc3)C(=O)N2Cc2ccccc2)cc1 |  | 600
17 | O=C1N(Cc2cccc(-c3cc[nH]n3)c2)[C@H](Cc2ccc(OCCN3CCOCC3)cc2)[C@H](O)[C@@H](O)[C@@H](Cc2ccc(OCCN3CCOCC3)cc2)N1Cc1cccc(-c2cc[nH]n2)c1 | 0.13 | 1030
